Measurements taken from patent EP4663639A1, “SALT AND CRYSTAL OF MNK INHIBITOR COMPOUND AND PREPARATION METHOD THEREFOR” (Novostar Pharmaceuticals, Ltd., priority 2023, dated 2024).

Legend:
Type in all cases: physicochemical
[1] = Solubility in buffers and water (HPLC of supernatant)
Method: Polymorph I of compound 1 obtained in Comparative Example 1, and sulfate polymorph A obtained in Example 1 were weighed in a sample vial, to which 1 mL of hydrochloric acid buffer solution at pH=1.2, acetate buffer solution at pH=4.5, phosphate buffer solution at pH=6.8, and water were added, respectively. The suspension was magnetically stirred at 25°C (1000 r/min).

[2] = Temperature and humidity stability, open storage (HPLC purity, XRPD crystal form)
Method: The sulfate polymorph A obtained in Example 1 was placed openly under conditions of 25°C/92.5% RH, 25°C/60% RH and 40°C/75% RH to test the temperature and humidity stability. After the samples were stored for 1 week and 4 weeks, respectively, the purity of the samples was tested by HPLC, and the crystalline morphology of the samples was detected by XRPD.
The XRPD results of sulfate polymorph A after 1 and 4 weeks of storage at 25°C/92.5% RH, 25°C/60% RH and 40°C/75% RH are shown in Figures 14 and 15. Table 12 Stability assessment of sulfate polymorph A at different temperatures and humidities

[3] = Storage stability of crystals at different temperatures, airtight (HPLC purity, XRPD crystal form)
Method: 10 mg polymorph I of compound 1 obtained in Comparative Example 1 and polymorph A of sulfate salt obtained in Example 1 were placed in an airtight environment and stored at 2~8 °C, 25 °C and 60 °C for 1 week and 2 weeks, respectively, and then samples were taken to examine the chemical purity of the samples by HPLC and the crystal morphology of the samples by XRPD. Table 11 Evaluation of storage properties of crystals at different temperatures

[4] = Moisture adsorption-desorption by DVS; details: 25 °C
Method: The moisture adsorption-desorption properties of sulfate polymorph A obtained according to Example 1 were examined by DVS. 16 mg of sulfate polymorph A was placed in a metal container, which was placed in an Intrinsic DVS apparatus. A cyclic humidity gradient of 40-95-0-40% RH was set at 25 °C, and the samples were subjected to two successive adsorption-desorption cycles. At each stage, the following equilibrium criteria were used: mass change dm/dt < 0.002% over 5 min, with minimum and maximum equilibrium times of 60 min and 360 min, respectively, at each stage. Table 13 Dynamic water adsorption experiments for sulfate polymorph A

[5] = acetate buffer solution pH 4.5, 25°C, 24 h
[6] = hydrochloric acid buffer solution pH 1.2, 25°C, 24 h
[7] = phosphate buffer solution pH 6.8, 25°C, 24 h
[8] = 25°C/60%RH for four weeks, open
[9] = 25°C/92.5% RH for four weeks, open
[10] = 25°C/92.5% RH for one week, open
[11] = 40°C/75% RH for four weeks, open

With `Cc1c2c(c(=O)n3c1C(=O)NC31CCCCC1)Nc1cc(NC(=O)C3CC3)ncc1C2` [Sulfate polymorph A] the solubility at 24 h ([1]; acetate buffer solution pH 4.5, 25°C) was 58.6 µg/mL, the “pH of the solution after solvation saturation has been reached” value (from here on “pH of the solution”) [1, 5] was 2.0 and the solubility at 24 h ([1]; hydrochloric acid buffer solution pH 1.2, 25°C) was 22.5 µg/mL. For the same compound, the “pH of the solution” value [1, 6] was 1.2, the solubility at 24 h ([1]; phosphate buffer solution pH 6.8, 25°C) was 21.6 µg/mL and the “pH of the solution” value [1, 7] was 2.0. For the same compound, the solubility at 24 h ([1]; water, 25°C) was 64.7 µg/mL, the “pH of the solution” value ([1]; water, 25°C, 24 h) was 1.5 and the “Aromatic content (%)” value ([2]; 25°C/60% RH for one week, open) was 1.0%. For the same compound, the “Purity (%)” value ([2]; 25°C/60% RH for one week, open) was 98.1%, the “Aromatic content (%)” value [2, 8] was 1.0% and the “Purity (%)” value [2, 8] was 98.1%. The “Aromatic content (%)” value [2, 9] was 1.2%, the “Purity (%)” value [2, 9] was 97.8% and the “Aromatic content (%)” value [2, 10] was 1.0%. For the same compound, the “Purity (%)” value [2, 10] was 98.1%, the “Aromatic content (%)” value [2, 11] was 1.1% and the “Purity (%)” value [2, 11] was 97.9%. For the same compound, the “Aromatic content (%)” value ([2]; 40°C/75% RH for one week, open) was 1.0%, the “Purity (%)” value ([2]; 40°C/75% RH for one week, open) was 98.1% and the “Aromatic content (%)” value ([2]; Initial) was 1.0%. For the same compound, the “Purity (%)” value ([2]; Initial) was 98.1%, the “structural stability (purity and XRPD) on storage” value ([2]; different humidity and temperature conditions, 1 and 4 weeks) was “high structural stability” and the “crystal structure (XRPD) after storage” value ([3]; 1 week and 2 weeks at 2~8 °C, 25 °C and 60 °C) was “did not undergo significant changes”. The “Purity (%)” value ([3]; Initial) was 97.5%, the “the amount of aromatic hydrocarbons (%)” value ([3]; Initial) was 1.5% and the “Purity (%)” value ([3]; One week, 2~8 °C, airtight) was 97.5%. The “the amount of aromatic hydrocarbons (%)” value ([3]; One week, 2~8 °C, airtight) was 1.5%, the “Purity (%)” value ([3]; One week, 25 °C, airtight) was 97.4% and the “the amount of aromatic hydrocarbons (%)” value ([3]; One week, 25 °C, airtight) was 1.5%. For the same compound, the “Purity (%)” value ([3]; One week, 60 °C, airtight) was 97.3%, the “the amount of aromatic hydrocarbons (%)” value ([3]; One week, 60 °C, airtight) was 1.7% and the “Purity (%)” value ([3]; Two weeks, 2~8 °C, airtight) was 97.5%. For the same compound, the “the amount of aromatic hydrocarbons (%)” value ([3]; Two weeks, 2~8 °C, airtight) was 1.5%, the “Purity (%)” value ([3]; Two weeks, 25 °C, airtight) was 97.5% and the “the amount of aromatic hydrocarbons (%)” value ([3]; Two weeks, 25 °C, airtight) was 1.5%. For the same compound, the “Purity (%)” value ([3]; Two weeks, 60 °C, airtight) was 97.1%, the “the amount of aromatic hydrocarbons (%)” value ([3]; Two weeks, 60 °C, airtight) was 1.8% and the hygroscopicity ([4]; 0%RH-95%RH) was “slightly hygroscopic”. The moisture absorbed ([4]; range 0%RH-95%RH) was 1.2%, the “1st Desorption Mass change (%)” value ([4]; Relative humidity 0 %) was -0.574% and the “2nd Adsorption Mass change (%)” value ([4]; Relative humidity 0 %) was -0.574%. For the same compound, the “1st Desorption Mass change (%)” value ([4]; Relative humidity 10 %) was -0.344%, the “2nd Adsorption Mass change (%)” value ([4]; Relative humidity 10 %) was -0.368% and the “1st Desorption Mass change (%)” value ([4]; Relative humidity 20 %) was -0.210%. The “2nd Adsorption Mass change (%)” value ([4]; Relative humidity 20 %) was -0.246%, the “1st Desorption Mass change (%)” value ([4]; Relative humidity 30 %) was -0.084% and the “2nd Adsorption Mass change (%)” value ([4]; Relative humidity 30 %) was -0.133%. The “1st Adsorption Mass change (%)” value ([4]; Relative humidity 40 %) was 0.000%, the “1st Desorption Mass change (%)” value ([4]; Relative humidity 40 %) was 0.081% and the “2nd Adsorption Mass change (%)” value ([4]; Relative humidity 40 %) was -0.017%. For the same compound, the “1st Adsorption Mass change (%)” value ([4]; Relative humidity 50 %) was 0.085%, the “1st Desorption Mass change (%)” value ([4]; Relative humidity 50 %) was 0.178% and the “1st Adsorption Mass change (%)” value ([4]; Relative humidity 60 %) was 0.174%. For the same compound, the “1st Desorption Mass change (%)” value ([4]; Relative humidity 60 %) was 0.253%, the “1st Adsorption Mass change (%)” value ([4]; Relative humidity 70 %) was 0.260% and the “1st Desorption Mass change (%)” value ([4]; Relative humidity 70 %) was 0.327%. For the same compound, the “1st Adsorption Mass change (%)” value ([4]; Relative humidity 80 %) was 0.357%, the “1st Desorption Mass change (%)” value ([4]; Relative humidity 80 %) was 0.418% and the “1st Adsorption Mass change (%)” value ([4]; Relative humidity 90 %) was 0.497%. For the same compound, the “1st Desorption Mass change (%)” value ([4]; Relative humidity 90 %) was 0.589%, the “1st Adsorption Mass change (%)” value ([4]; Relative humidity 95 %) was 0.604% and the “1st Desorption Mass change (%)” value ([4]; Relative humidity 95 %) was 0.604%.
With “N-(12'-methyl-1',5'-dioxo-1',5',6 ',11'-tetrahydro-2'H-spiro[cyclohexane-1,3'-imidazo[1,5':1,6]pyrido[3,4-b][ 1,6]naphthyridin]-8'-yl)cyclopropane carboxamide [polymorph I of Compound 1]” the “Solubility (μg/mL)” value [1, 5] was “Not detected”, the “pH of the solution” value [1, 5] was 3.5 and the “Solubility” value [1, 6] was 18.7 µg/mL. For the same compound, the “pH of the solution” value [1, 6] was 1.0, the “Solubility (μg/mL)” value [1, 7] was “Not detected” and the “pH of the solution” value [1, 7] was 6.4. The “Solubility (μg/mL)” value ([1]; water, 25°C, 24 h) was “Not detected”, the “pH of the solution” value ([1]; water, 25°C, 24 h) was 6.4 and the “crystal structure (XRPD) after storage” value ([3]; 2 weeks at high temperature (60 °C)) was “the crystal structure changed”. The “crystal structure (XRPD) after storage” value ([3]; 2 weeks at low temperature (2-8 °C) or room temperature (25 °C)) was “did not change significantly”, the “Purity (%)” value ([3]; Initial) was 97.4% and the “the amount of aromatic hydrocarbons (%)” value ([3]; Initial) was 1.6%. The “Purity (%)” value ([3]; One week, 2~8 °C, airtight) was 97.6%, the “the amount of aromatic hydrocarbons (%)” value ([3]; One week, 2~8 °C, airtight) was 1.4% and the “Purity (%)” value ([3]; One week, 25 °C, airtight) was 97.6%. The “the amount of aromatic hydrocarbons (%)” value ([3]; One week, 25 °C, airtight) was 1.4%, the “Purity (%)” value ([3]; One week, 60 °C, airtight) was 96.6% and the “the amount of aromatic hydrocarbons (%)” value ([3]; One week, 60 °C, airtight) was 2.4%. For the same compound, the “Purity (%)” value ([3]; Two weeks, 2~8 °C, airtight) was 97.5%, the “the amount of aromatic hydrocarbons (%)” value ([3]; Two weeks, 2~8 °C, airtight) was 1.5% and the “Purity (%)” value ([3]; Two weeks, 25 °C, airtight) was 97.4%. For the same compound, the “the amount of aromatic hydrocarbons (%)” value ([3]; Two weeks, 25 °C, airtight) was 1.6%, the “Purity (%)” value ([3]; Two weeks, 60 °C, airtight) was 96.3% and the “the amount of aromatic hydrocarbons (%)” value ([3]; Two weeks, 60 °C, airtight) was 2.7%.
